Test results: US20230255966A1, “A COMBINATION OF A CBP/P300 BROMODOMAIN INHIBITOR AND AN EGFR INHIBITOR FOR USE IN TREATING EGFR-MUTANT NSCLC” (TOLREMO THERAPEUTICS AG, priority 2020, published 2023)

Columns and labels:
[1] = tested on: HCC827 cells; test: Cell counting by nuclear fluorescent staining (Hoechst33342); format: cell-based
Description: Several plates were seeded, as for each time point of cell counting one plate was fixed and stained for analysis. […] Cell cultivation was continued until time of fixation and analysis for each plate. For extended time-points, medium and drugs were replenished twice weekly.
At the given time plates were washed 3 times with PBS and cells fixed with 80 μl 4% PFA for 10 min, RT. After 3 wash steps with PBS cells were stained with 10 μg/ml Hoechst33342 (Thermo Scientific H12492) in 100 μl PBS for 2 h, RT, dark. After 3× PBS washing-steps, Hoechst33342 signals were acquired on in an automated imaging mode using a Zeiss Apotome with motorized X/Y stage and a 5× objective. Image analysis and determination of Hoechst33342 spots (nuclei) was done using ImageJ. Number of nuclei was plotted as function of time using GraphPad Prism.

[2] = target: T1, CBP bromodomain (Homo sapiens, UniProt Q92793); test: CBP bromodomain binding assay (TR-FRET); settings: class symbols
T1 construct: purchased Cayman chemicals 600850
Description: Compounds solutions of 10 mM in DMSO were pre-diluted in DSMO to 25× stock solutions in DMSO. These were then diluted down to 4× in Assay buffer. A dilution series in Assay buffer was performed keeping the DMSO concentration stable. 5 μl compound in assay buffer was transferred into the assay plate (provided by assay kit) and the TR-FRET assay Cayman chemicals; 600850) was performed using the manufactor's instructions. […] The TR-FRET ratio was calculated by dividing 670 nm emission by 620 nm emission.

[3] = tested on: HCC827 cells; test: Label-free determination of cell proliferation (CELIGO); format: cell-based; settings: HCC827, combined with 100 nM osimertinib, 21 days (FIG. 9)
[4] = tested on: NCI-H1975 xenografts; test: NCI-H1975 xenograft tumor growth; format: in vivo, NMRI-Nude mice
Description: Tumor volume was measured using a manual caliper two to three times a week. The tumor volume was calculated using the formula: lager tumor diameter x square of the smaller tumor diameter divided by 2. Based on a linear fit of the mean tumor volumes the slopes of the curves were compared by regression analysis (two-tailed).
(§1) The response was determined by comparing tumor volume change at time t to its baseline: % tumor volume change=ΔVolt=100%×((Vt−Vinitial)/Vinitial). The Best Response was the minimum value of ΔVolt for t≥10 d. For each time t, the average of ΔVolt from t=0 to t was also calculated. The BestAvgResponse is defined as the minimum value of this average for t≥10 d. This metric captures a combination of speed, strength and durability of response into a single value. […] Mice that were sacrificed because of an adverse event before they had completed 14 d on trial were removed from the data set.
as §1, with “ΔVolt for t≥6 d. For” for “ΔVolt for t≥10 d. For”

[5] = target: T2, BRD1 (Homo sapiens, UniProt O95696); test: BROMOscan BromoKdMAX; format: binding
T2 construct: T7 phage strains displaying bromodomains were grown in parallel; purchased DiscoverX; host or cells: T7 phage in E. coli host derived from BL21
Description: (§2) A BromoKdMAX was performed at DiscoverX.
(§3) The assay principle is the following: BROMOscan™ is a novel industry leading platform for identifying small molecule bromodomain inhibitors. Based on proven KINOMEscan™ technology, BRO-MOscan™ employs a proprietary ligand binding site-directed competition assay to quantitatively measure interactions between test compounds and bromodomains. This robust and reliable assay panel is suitable for high throughput screening and delivers quantitative ligand binding data to facilitate the identification and optimization of potent and selective small molecule bromodomain inhibitors.
(§4) The assay was conducted as follows: For the Bromodomain assays, T7 phage strains displaying bromodomains were grown in parallel in 24-well blocks in an E. coli host derived from the BL21 strain. E. coli were grown to log-phase and infected with T7 phage from a frozen stock (multiplicity of infection=0.4) and incubated with shaking at 32° C. until lysis (90-150 minutes). The lysates were centrifuged (5,000×g) and filtered (0.2 μm) to remove cell debris. […] The liganded beads were blocked with excess biotin and washed with blocking buffer (SeaBlock (Pierce), 1% BSA, 0.05% Tween 20, 1 mM DTT) to remove unbound ligand and to reduce non-specific phage binding. […] Test compounds were prepared as 1000× stocks in 100% DMSO. Kds were determined using an 11-point 3-fold compound dilution series with one DMSO control point. […] The compounds were then diluted directly into the assays such that the final concentration of DMSO was 0.09%. All reactions performed in polypropylene 384-well plates. Each was a final volume of 0.02 ml. […] The bromodomain concentration in the eluates was measured by qPCR.

[6] = target: T3, FALZ (Homo sapiens, UniProt Q12830); test: BROMOscan BromoKdMAX; format: binding
T3 construct: T7 phage strains displaying bromodomains were grown in parallel; purchased DiscoverX (BROMOscan / BromoKdMAX service); host or cells: T7 phage in E. coli host derived from BL21
Description: as §2, §3, §4

[7] = target: T4, SMARCA4 (Homo sapiens, UniProt P51532); test: BROMOscan BromoKdMAX; format: binding
T4 construct: T7 phage strains displaying bromodomains were grown in parallel; purchased DiscoverX (BROMOscan / BromoKdMAX service); host or cells: T7 phage in E. coli host derived from BL21
Description: as §2, §3, §4

[8] = target: T5, BAZ2B (Homo sapiens, UniProt Q9UIF8); test: BROMOscan BromoKdMAX; format: binding
T5 construct: T7 phage strains displaying bromodomains were grown in parallel; purchased DiscoverX; host or cells: T7 phage in E. coli host derived from BL21
Description: as §2, §3, §4

[9] = target: T6, BAZ2A (Homo sapiens, UniProt Q9UIF9); test: BROMOscan BromoKdMAX; format: binding
T6 construct: T7 phage strains displaying bromodomains were grown in parallel; purchased DiscoverX; host or cells: T7 phage in E. coli host derived from BL21
Description: as §2, §3, §4

[10] = target: T7, GCN5L2 (Homo sapiens, UniProt Q92830); test: BROMOscan BromoKdMAX; format: binding
T7 construct: T7 phage strains displaying bromodomains were grown in parallel; purchased DiscoverX (BROMOscan / BromoKdMAX service); host or cells: T7 phage in E. coli host derived from BL21
Description: as §2, §3, §4

[11] = target: T8, TRIM33(PHD, Bromo.) (Homo sapiens, UniProt Q9UPN9); test: BROMOscan BromoKdMAX; format: binding
T8 construct: TRIM33(PHD, Bromo.)
Description: as §2, §3, §4

[12] = target: T9, PBRM1(2) (Homo sapiens, UniProt Q86U86); test: BROMOscan BromoKdMAX; format: binding
T9 construct: T7 phage strains displaying bromodomains were grown in parallel; purchased DiscoverX (BROMOscan / BromoKdMAX service); host or cells: T7 phage in E. coli host derived from BL21
Description: as §2, §3, §4

[13] = target: T10, SMARCA2 (Homo sapiens, UniProt P51531); test: BROMOscan BromoKdMAX; format: binding
T10 construct: T7 phage strains displaying bromodomains were grown in parallel; purchased DiscoverX (BROMOscan / BromoKdMAX service); host or cells: T7 phage in E. coli host derived from BL21
Description: as §2, §3, §4

[14] = target: T11, BRPF3 (Homo sapiens, UniProt Q9ULD4); test: BROMOscan BromoKdMAX; format: binding
T11 construct: T7 phage strains displaying bromodomains were grown in parallel; purchased DiscoverX; host or cells: T7 phage in E. coli host derived from BL21
Description: as §2, §3, §4

[15] = target: T12, ATAD2B (Homo sapiens, UniProt Q9ULI0); test: BROMOscan BromoKdMAX; format: binding
T12 construct: T7 phage strains displaying bromodomains were grown in parallel; purchased DiscoverX; host or cells: T7 phage in E. coli host derived from BL21
Description: as §2, §3, §4

[16] = target: T13, PBRM1(5) (Homo sapiens, UniProt Q86U86); test: BROMOscan BromoKdMAX; format: binding
T13 construct: T7 phage strains displaying bromodomains were grown in parallel; purchased DiscoverX (BROMOscan / BromoKdMAX service); host or cells: T7 phage in E. coli host derived from BL21
Description: as §2, §3, §4

[17] = target: T14, ATAD2A (Homo sapiens, UniProt Q6PL18); test: BROMOscan BromoKdMAX; format: binding
T14 construct: T7 phage strains displaying bromodomains were grown in parallel; purchased DiscoverX; host or cells: T7 phage in E. coli host derived from BL21
Description: as §2, §3, §4

[18] = 2 mg/kg osimertinib in combination with 90 mg/kg Compound C

T6 sequence (Q9UIF9 1793-1897 limits assumed): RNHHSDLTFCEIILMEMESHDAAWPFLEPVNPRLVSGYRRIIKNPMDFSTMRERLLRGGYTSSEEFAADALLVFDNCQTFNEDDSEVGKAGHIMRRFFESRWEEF
T12 sequence (Q9ULI0 951-1066 limits assumed): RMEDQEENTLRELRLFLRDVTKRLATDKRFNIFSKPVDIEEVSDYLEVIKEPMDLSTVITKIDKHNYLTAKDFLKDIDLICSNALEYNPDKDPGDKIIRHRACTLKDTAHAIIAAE
T11 sequence (Q9ULD4 589-693 limits assumed): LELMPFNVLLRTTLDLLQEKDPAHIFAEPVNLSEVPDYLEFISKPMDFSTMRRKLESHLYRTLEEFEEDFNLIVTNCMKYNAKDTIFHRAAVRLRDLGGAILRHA
T14 sequence (Q6PL18 980-1092 limits assumed): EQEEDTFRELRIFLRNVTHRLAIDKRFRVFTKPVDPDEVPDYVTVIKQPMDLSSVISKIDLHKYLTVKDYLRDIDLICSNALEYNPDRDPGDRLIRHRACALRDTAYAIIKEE
T9 sequence (Q86U86 177-287 limits assumed): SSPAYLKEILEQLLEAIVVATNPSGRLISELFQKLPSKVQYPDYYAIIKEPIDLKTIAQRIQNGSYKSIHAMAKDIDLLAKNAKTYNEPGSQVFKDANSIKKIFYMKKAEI
T1 sequence (Q92793 1085-1192 limits assumed): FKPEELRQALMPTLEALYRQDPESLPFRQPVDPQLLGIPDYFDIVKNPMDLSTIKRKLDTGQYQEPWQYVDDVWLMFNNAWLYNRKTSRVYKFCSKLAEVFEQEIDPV
T2 sequence (O95696 562-666 limits assumed): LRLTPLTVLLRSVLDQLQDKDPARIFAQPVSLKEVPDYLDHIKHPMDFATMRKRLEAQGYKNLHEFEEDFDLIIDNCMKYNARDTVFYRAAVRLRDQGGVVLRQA
T10 sequence (P51531 1378-1506 limits assumed): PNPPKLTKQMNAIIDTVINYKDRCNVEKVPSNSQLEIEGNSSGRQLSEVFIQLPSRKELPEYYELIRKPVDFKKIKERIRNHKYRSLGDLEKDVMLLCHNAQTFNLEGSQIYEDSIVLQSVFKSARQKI
T4 sequence (P51532 1453-1564 limits assumed): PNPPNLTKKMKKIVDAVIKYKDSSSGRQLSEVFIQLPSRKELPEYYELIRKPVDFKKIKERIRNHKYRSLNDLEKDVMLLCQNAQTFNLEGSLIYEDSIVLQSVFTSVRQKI
T8 sequence (Q9UPN9 whole entry): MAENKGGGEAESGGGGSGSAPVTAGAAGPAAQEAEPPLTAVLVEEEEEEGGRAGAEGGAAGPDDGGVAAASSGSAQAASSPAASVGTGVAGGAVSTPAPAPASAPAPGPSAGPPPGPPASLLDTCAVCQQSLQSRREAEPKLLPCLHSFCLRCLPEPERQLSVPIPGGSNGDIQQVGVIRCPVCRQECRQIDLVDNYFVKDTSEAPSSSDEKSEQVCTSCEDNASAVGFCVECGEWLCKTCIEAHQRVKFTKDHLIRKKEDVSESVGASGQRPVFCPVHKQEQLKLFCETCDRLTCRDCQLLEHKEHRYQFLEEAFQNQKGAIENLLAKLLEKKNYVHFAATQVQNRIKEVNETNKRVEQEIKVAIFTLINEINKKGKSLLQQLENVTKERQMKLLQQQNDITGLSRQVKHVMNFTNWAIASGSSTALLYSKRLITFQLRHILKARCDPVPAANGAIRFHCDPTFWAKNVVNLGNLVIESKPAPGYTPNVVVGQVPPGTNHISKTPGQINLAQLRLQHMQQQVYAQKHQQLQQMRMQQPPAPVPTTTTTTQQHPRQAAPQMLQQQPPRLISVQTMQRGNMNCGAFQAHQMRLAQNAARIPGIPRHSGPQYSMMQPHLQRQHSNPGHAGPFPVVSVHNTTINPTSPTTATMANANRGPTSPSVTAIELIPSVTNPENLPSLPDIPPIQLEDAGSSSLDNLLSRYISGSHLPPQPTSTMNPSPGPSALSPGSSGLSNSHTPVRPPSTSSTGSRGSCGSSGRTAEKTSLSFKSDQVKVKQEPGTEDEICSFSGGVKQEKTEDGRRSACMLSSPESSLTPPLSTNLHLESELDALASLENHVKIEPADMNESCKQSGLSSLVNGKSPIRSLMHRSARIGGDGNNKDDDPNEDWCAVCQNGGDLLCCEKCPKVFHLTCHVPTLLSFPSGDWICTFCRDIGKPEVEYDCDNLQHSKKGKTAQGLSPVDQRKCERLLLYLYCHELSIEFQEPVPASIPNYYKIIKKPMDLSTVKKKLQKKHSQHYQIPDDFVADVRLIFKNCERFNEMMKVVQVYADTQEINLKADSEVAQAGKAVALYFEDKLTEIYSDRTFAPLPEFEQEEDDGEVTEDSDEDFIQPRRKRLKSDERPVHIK
T5 sequence (Q9UIF8 2060-2164 limits assumed): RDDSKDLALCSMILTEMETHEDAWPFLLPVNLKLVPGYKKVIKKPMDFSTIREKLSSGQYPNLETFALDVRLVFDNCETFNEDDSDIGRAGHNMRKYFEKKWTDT
T7 sequence (Q92830 728-832 limits assumed): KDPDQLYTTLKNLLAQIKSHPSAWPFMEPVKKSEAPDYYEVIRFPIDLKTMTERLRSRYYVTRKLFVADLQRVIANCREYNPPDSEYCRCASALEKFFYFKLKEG
T13 sequence (Q86U86 653-763 limits assumed): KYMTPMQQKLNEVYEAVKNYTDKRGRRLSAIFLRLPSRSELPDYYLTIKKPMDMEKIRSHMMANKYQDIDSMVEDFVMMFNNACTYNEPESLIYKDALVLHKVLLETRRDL

CC(=O)N1C[C@H](c2nc(Nc3ccnc(C)c3)cc(-c3cccnc3)n2)CC[C@@H]1C [Compound 00071, 1-((2S,5R)-2-methyl-5-(4-((2-methylpyridin-4-yl)amino)-6-(pyridin-3-yl)pyrimidin-2-yl)piperidin-1-yl)ethan-1-one]
Effect on cell proliferation as single agent ([1]; absence of EGFR inhibitor (FIG. 3 left)): absence of an anti-proliferative effect
Anti-proliferative activity / re-growth in presence of Gefitinib ([1]; in presence of 300 nM Gefitinib (FIG. 3)): potentiate the effect of the EGFR inhibitor
EC50 [2]: < 0.2 µM

CC(=O)N1C[C@H](c2nc(Nc3cccc(-c4cn(C)nn4)c3)cc(-c3cnccn3)n2)CC[C@@H]1C [Compound C, 1-((2S,5R)-2-methyl-5-(4-((3-(1-methyl-1H-1,2,3-triazol-4-yl)phenyl)amino)-6-(pyrazin-2-yl)pyrimidin-2-yl)piperidin-1-yl)ethan-1-one]
Development of drug resistance / re-growth [3]: prevent the development of drug resistance
Response to therapy [4, 18]: response to therapy is significantly increased
Slope of linear regression fit of mean tumor volumes over time [4, 18]: −7.4
Tumor growth (slopes of mean tumor volume curves) versus osimertinib group ([4]; 2 mg/kg osimertinib in combination with 90 mg/kg Compound C, daily, orally): significant difference
Tumor growth (slopes of mean tumor volume curves) versus vehicle ([4]; 90 mg/kg Compound C single agent, daily, orally): No significant difference
Kd [5]: > 10 µM
Kd [6]: > 10 µM
Kd [7]: > 10 µM
Kd [8]: > 10 µM
Kd [9]: > 10 µM
Kd [10]: > 10 µM
Kd [11]: > 10 µM
Kd [12]: > 10 µM
Kd [13]: > 10 µM
Kd [14]: > 10 µM
Kd [15]: > 10 µM
Kd [16]: > 10 µM
Kd [17]: > 10 µM
